Here are results for 26 compounds from patent publication US9272990B2, “Lysophosphatidic acid receptor antagonists and their use in the treatment fibrosis” (AMIRA PHARMACEUTICALS, INC., priority 2010, dated 2016).

T1 sequence (Q92633 whole entry): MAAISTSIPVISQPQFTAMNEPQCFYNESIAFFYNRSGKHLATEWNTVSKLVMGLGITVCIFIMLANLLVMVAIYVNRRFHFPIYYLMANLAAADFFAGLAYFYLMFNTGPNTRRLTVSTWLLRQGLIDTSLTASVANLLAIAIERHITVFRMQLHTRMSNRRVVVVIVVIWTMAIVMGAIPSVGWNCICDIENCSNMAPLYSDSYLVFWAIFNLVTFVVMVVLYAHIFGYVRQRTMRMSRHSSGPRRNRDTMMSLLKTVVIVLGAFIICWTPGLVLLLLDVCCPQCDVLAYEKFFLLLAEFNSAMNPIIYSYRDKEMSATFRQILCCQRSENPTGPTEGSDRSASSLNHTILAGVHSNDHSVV

The test concerns the target T1, Human LPA1 (Homo sapiens, UniProt Q92633).
T1 construct: the full-length cDNA for human LPA1 was obtained by PCR of the reverse transcription reaction; expressed in transfected cells
In words: LPA1 calcium flux assay. The test is classed as cell-based. The settings on record: CHO cells expressing human LPA1, stimulated with 10 nM LPA; read-out: LPA1 Ca^2+ flux. How it is done: A 1.1 kb cDNA encoding the human LPA1 receptor was cloned from human lung. Human lung RNA (Clontech Laboratories, Inc. USA) was reverse transcribed using the RETROSCRIPT® kit (Ambion, Inc.) and the full-length cDNA for human LPA1 was obtained by PCR of the reverse transcription reaction. The nucleotide sequence of the cloned human LPA1 was determined by sequencing and confirmed to be identical to the published human LPA1 sequence (An et al., Biochem. Biophys. Res. Commun. 231:619 (1997). The cDNA was cloned into the pcDNA5/FRT expression plasmid and transfected in CHO cells using Lipofectamine 2000 (Invitrogen Corp., USA). Clones stably expressing human LPA1 were selected using hygromycin and identified as cells that show Ca-influx in response to LPA.
Human LPA1 or LPA3 expressing CHO cells are seeded at 20,000-45,000 cells per well in a 96-well poly-D-lysine coated plate one or two days before the assay. Prior to the assay, the cells are washed once with PBS and then cultured in serum-free media overnight. On the day of the assay, a calcium indicator dye (Calcium 4, Molecular Devices) in assay buffer (HBSS with Ca^2+ and Mg^2+ and containing 20 mM Hepes and 0.3% fatty-acid free human serum albumin) is added to each well and incubation continued for 1 hour at 37° C. 10 μl of test compounds in 2.5% DMSO are added to the cells and incubation continued at room temperature for 30 minutes. Cells are the stimulated by the addition of 10 nM LPA and intracellular Ca^2+ measured using the FLEXSTATION® 3 (Molecular Devices). IC50s are determined using Graphpad prism analysis of drug titration curves.
`O=C(O)C1(c2ccc(-c3ccc(-c4sccc4C(O)CCCc4ccccc4)cc3)cc2)CC1` (single isomer, unassigned) [Compound 1-26, 1-{4′-[3-(1-hydroxy-4-phenyl-butyl)-thiophen-2-yl]-biphenyl-4-yl}-cyclopropanecarboxylic acid]: the IC50 is less than 300 nM.

Take `O=C(O)C1(c2ccc(-c3ccc(-c4sccc4C(O)CCCc4ccccc4)cc3)cc2)CC1` (single isomer, unassigned) [Compound 1-27, 1-{4′-[3-(1-hydroxy-4-phenyl-butyl)-thiophen-2-yl]-biphenyl-4-yl}-cyclopropanecarboxylic acid]: the IC50 was less than 300 nM.

As for `C[C@@H](OC(=O)Nc1ccccc1-c1ccc(-c2ccc(C3(C(=O)O)CC3)cc2)cc1)c1ccccc1` [Compound 1-2, 1-[2″-((R)-1-phenyl-ethoxycarbonylamino)-[1,1′;4′,1″]terphenyl-4-yl]-cyclopropanecarboxylic acid], the IC50 was less than 300 nM. The figure for `C[C@@H](OC(=O)Nc1cnccc1-c1ccc(-c2ccc(C3(C(=O)O)CC3)cc2)cc1)c1ccccc1` [Compound 1-3, 1-{4′-[3-((R)-1-phenyl-ethoxycarbonylamino)-pyridin-4-yl]-biphenyl-4-yl}-cyclopropanecarboxylic acid] is 300 to 1000 nM. Regarding `C[C@@H](OC(=O)Nc1ncoc1-c1ccc(-c2ccc(C3(C(=O)O)CC3)cc2)cc1)c1ccccc1` [Compound 1-4, 1-{4′-[4-((R)-1-phenyl-ethoxycarbonylamino)-oxazol-5-yl]-biphenyl-4-yl}-cyclopropanecarboxylic acid], the IC50 was less than 300 nM. The figure for `O=C(O)C1(c2ccc(-c3ccc(-c4ncccc4C(O)CCCc4ccccc4)cc3)cc2)CC1` (centres unmarked) [Compound 1-5, 1-{4′-[3-(1-hydroxy-4-phenyl-butyl)-pyridin-2-yl]-biphenyl-4-yl}-cyclopropanecarboxylic acid] is less than 300 nM; for `O=C(O)C1(c2ccc(-c3ccc(-c4ccsc4C(O)CCCc4ccccc4)cc3)cc2)CC1` (centres unmarked) [Compound 1-6, 1-{4′-[2-(1-hydroxy-4-phenyl-butyl)-thiophen-3-yl]-biphenyl-4-yl}-cyclopropanecarboxylic acid] it is less than 300 nM; for `O=C(O)C1(c2ccc(-c3ccc(-c4ccccc4C(O)CCCc4ccccc4)cc3)cc2)CC1` (centres unmarked) [Compound 1-7, 1-[2-(1-hydroxy-4-phenyl-butyl)-[1,1′;4′,1″]terphenyl-4″-yl]-cyclopropanecarboxylic acid] it is less than 300 nM. Take `O=C(O)CC1(c2ccc(-c3ccc(-c4ccncc4C(O)CCCc4ccccc4)cc3)cc2)CC1` (centres unmarked) [Compound 1-8, (1-{4′-[3-(1-hydroxy-4-phenyl-butyl)-pyridin-4-yl]-biphenyl-4-yl}-cyclopropyl)-acetic acid]: the IC50 is 300 to 1000 nM. In the case of `O=C(O)C1(c2ccc(-c3ccc(-c4ccncc4C(O)CCCc4ccccc4)cc3)cc2)CC1` (centres unmarked) [Compound 1-9, 1-{4′-[3-(1-Hydroxy-4-phenyl-butyl)-pyridin-4-yl]-biphenyl-4-yl}-cyclopropanecarboxylic acid], the IC50 was less than 300 nM. In the case of `Cn1ncc(-c2ccc(-c3ccc(C4(CC(=O)O)CC4)cc3)cc2)c1C(O)CCCc1ccccc1` (centres unmarked) [Compound 1-10, (1-{4′-[5-(1-hydroxy-4-phenyl-butyl)-1-methyl-1H-pyrazol-4-yl]-biphenyl-4-yl}-cyclopropyl)-acetic acid], the IC50 is less than 300 nM.

As to `Cn1ncc(-c2ccc(-c3ccc(C4(C(=O)O)CC4)cc3)cc2)c1C(O)CCCc1ccccc1` (centres unmarked) [Compound 1-11, 1-{4′-[5-(1-hydroxy-4-phenyl-butyl)-1-methyl-1H-pyrazol-4-yl]-biphenyl-4-yl}-cyclopropanecarboxylic acid], the IC50 is less than 300 nM. Under `O=C(O)CC1(c2ccc(-c3ccc(-c4ncccc4C(O)CCCc4ccccc4)cc3)cc2)CC1` (centres unmarked) [Compound 1-12, (1-{4′-[3-(1-hydroxy-4-phenyl-butyl)-pyridin-2-yl]-biphenyl-4-yl}-cyclopropyl)-acetic acid] stands less than 300 nM.

Consider `O=C(O)CC1(c2ccc(-c3ccc(-c4ccsc4C(O)CCCc4ccccc4)cc3)cc2)CC1` (centres unmarked) [Compound 1-13, (1-{4′-[2-(1-hydroxy-4-phenyl-butyl)-thiophen-3-yl]-biphenyl-4-yl}-cyclopropyl)-acetic acid], for which the IC50 was less than 300 nM. `O=C(O)CC1(c2ccc(-c3ccc(-c4cscc4C(O)CCCc4ccccc4)cc3)cc2)CC1` (centres unmarked) [Compound 1-14, (1-{4′-[4-(1-hydroxy-4-phenyl-butyl)-thiophen-3-yl]-biphenyl-4-yl}-cyclopropyl)-acetic acid]: the IC50 is less than 300 nM. Under `O=C(O)C1(c2ccc(-c3ccc(-c4cscc4C(O)CCCc4ccccc4)cc3)cc2)CC1` (centres unmarked) [Compound 1-15, 1-{4′-[4-(1-hydroxy-4-phenyl-butyl)-thiophen-3-yl]-biphenyl-4-yl}-cyclopropanecarboxylic acid] stands less than 300 nM; under `O=C(O)C1(c2ccc(-c3ccc(-c4ncc5ccccc5c4C(O)CCCc4ccccc4)cc3)cc2)CC1` (centres unmarked) [Compound 1-16, 1-{4′-[4-(1-hydroxy-4-phenyl-butyl)-isoquinolin-3-yl]-biphenyl-4-yl}-cyclopropanecarboxylic acid], 1000 to 10000 nM.

With `O=C(O)C1(c2ccc(-c3ccc(-c4cnccc4C(O)CCCc4ccccc4)cc3)cc2)CC1` (centres unmarked) [Compound 1-17, 1-{4′-[4-(1-hydroxy-4-phenyl-butyl)-pyridin-3-yl]-biphenyl-4-yl}-cyclopropanecarboxylic acid], the IC50 is less than 300 nM. The figure for `O=C(O)C1(c2ccc(-c3ccc(-c4sccc4C(O)CCCc4ccccc4)cc3)cc2)CC1` (centres unmarked) [Compound 1-18, 1-{4′-[3-(1-hydroxy-4-phenyl-butyl)-thiophen-2-yl]-biphenyl-4-yl}-cyclopropanecarboxylic acid] is less than 300 nM; for `O=C(O)CC1(c2ccc(-c3ccc(-c4sccc4C(O)CCCc4ccccc4)cc3)cc2)CC1` (centres unmarked) [Compound 1-19, (1-{4′-[3-(1-hydroxy-4-phenyl-butyl)-thiophen-2-yl]-biphenyl-4-yl}-cyclopropyl)-acetic acid] it is less than 300 nM; for `Cn1ncc(-c2ccc(-c3ccc(C4(C(=O)O)CC4)cc3)cc2)c1Nc1cccc(-c2ccccc2)n1` [Compound 1-20, 1-{4′-[1-methyl-5-(6-phenyl-pyridin-2-ylamino)-1H-pyrazol-4-yl]-biphenyl-4-yl}-cyclopropanecarboxylic acid] it is less than 300 nM. Under `CC(CCc1ccc(Cl)cc1)Nc1c(-c2ccc(-c3ccc(C4(C(=O)O)CC4)cc3)cc2)cnn1C` (centres unmarked) [Compound 1-21, 1-(4′-{5-[3-(4-chloro-phenyl)-1-methyl-propylamino]-1-methyl-1H-pyrazol-4-yl}-biphenyl-4-yl)-cyclopropanecarboxylic acid] stands less than 300 nM.

Turning to `Cn1ncc(-c2ccc(-c3ccc(C4(C(=O)O)CC4)cc3)cc2)c1C(O)c1cn(Cc2ccccc2)nn1` (centres unmarked) [Compound 1-22, 1-(4′-{5-[(1-benzyl-1H-[1,2,3]triazol-4-yl)-hydroxy-methyl]-1-methyl-1H-pyrazol-4-yl}-biphenyl-4-yl)-cyclopropanecarboxylic acid], the IC50 was less than 300 nM. Under `CCn1ncc(-c2ccc(-c3ccc(C4(C(=O)O)CC4)cc3)cc2)c1C(O)CCCc1ccccc1` (centres unmarked) [Compound 1-23, 1-{4′-[1-ethyl-5-(1-hydroxy-4-phenyl-butyl)-1H-pyrazol-4-yl]-biphenyl-4-yl}-cyclopropanecarboxylic acid] stands less than 300 nM. The figure for `CCn1ncc(-c2ccc(-c3ccc(C4(CC(=O)O)CC4)cc3)cc2)c1C(O)CCCc1ccccc1` (centres unmarked) [Compound 1-24, (1-{4′-[1-ethyl-5-(1-hydroxy-4-phenyl-butyl)-1H-pyrazol-4-yl]-biphenyl-4-yl}-cyclopropyl)-acetic acid] is less than 300 nM. With `Cn1ncc(-c2ccc(-c3ccc(C4(C(=O)O)CC4)cc3)cc2)c1NCc1cnc(-c2ccccc2)s1` [Compound 1-25, 1-(4′-{1-methyl-5-[(2-phenyl-thiazol-5-ylmethyl)-amino]-1H-pyrazol-4-yl}-biphenyl-4-yl)-cyclopropanecarboxylic acid], the IC50 fell in the range of 1000 to 10000 nM.
